The test system of data set [1] is Staphylococcus aureus. The data set can be described thus: Disk diffusion bioassay, S. aureus. In kind it is cell-based. As to conditions: control disk containing 30 ug vancomycin. On the procedure: (§1) A study was conducted to evaluate the antimicrobial activity of procyanidin oligomers against Helicobacter pylori and Staphylococcus aureus. Pentamer enriched material was prepared as described in Example 13, Method A and analyzed as described in Example 14, Method C, where 89% was pentamer, and 11% was higher oligomers (n is 6 to 12). Purified pentamer (96.3%) was prepared as described in Example 14, Method D.
(§2) Helicobacter pylori and Staphylococcus aureus were obtained from the American Type Culture Collection (ATCC). For H. pylori, the vial was rehydrated with 0.5 mL Trypticase Soy broth and the suspension transferred to a slant of fresh TSA containing 5% defibrinated sheep blood. The slant was incubated at 37° C. for 3 to 5 days under microaerophilic conditions in anaerobic jars (5 to 10% carbon dioxide; CampyPakPlus, BBL). When good growth was established in the pool of broth at the bottom of the slant, the broth was used to inoculate additional slants of TSA with sheep blood. Because viability decreased with continued subculturing, the broth harvested from the slants was pooled and stored at −80° C. Cultures for assay were used directly from the frozen vials. […]
(§3) A cell suspension of each culture was prepared (H. pylori, 10^8 to 10^9 cfu/mL; S. aureus 10^6 to 10^7 cfu/mL) and 0.5 mL spread onto TSA plates with 5% sheep blood. […] Zones of inhibition were measured following outgrowth.

Data set [2] can be described thus: Rancimat oxidative stability test of peanut oil. As to conditions: Rancimat 100° C., 20 cc/min air, control 10.5 ± 0.7. On the procedure:
The procedures described in Examples 1, 2 and 3 were used to prepare cocoa extracts which were manipulated further to produce two fractions from gel permeation chromatography. These two fractions are actually combined fractions A through C, and D and E (See FIG. 1) whose antioxidant properties were compared against the synthetic antioxidants BHA and BHT.
Peanut Oil was pressed from unroasted peanuts after the skins were removed. 50 μL of methanol solubilized antioxidant was added to each sample to aid in dispersion of the antioxidant. A control sample was prepared with 50 μL of methanol containing no antioxidant.
The samples were evaluated in duplicate, for oxidative stability using the Rancimat stability test at 100° C. and 20 cc/min of air. Experimental parameters were chosen to match those used with the Active oxygen Method (AOM) or Swift Stability Test (Van oosten et al., 1981). Results are reported in Table 8 as hours required to reach a peroxide level of 100 meq.

Data set [3] concerns Helicobacter pylori. The experiment in a line: Disk diffusion bioassay, H. pylori. In kind it is cell-based. As to conditions: control disk containing 80 ug metronidazole. On the procedure: as §1, §2, §3

For `CN[C@H](CC(C)C)C(=O)N[C@H]1C(=O)N[C@@H](CC(N)=O)C(=O)N[C@H]2C(=O)N[C@H]3C(=O)N[C@H](C(=O)N[C@H](C(=O)O)c4cc(O)cc(O)c4-c4cc3ccc4O)[C@H](O)c3ccc(c(Cl)c3)Oc3cc2cc(c3O[C@@H]2O[C@H](CO)[C@@H](O)[C@H](O)[C@H]2O[C@H]2C[C@](C)(N)[C@H](O)[C@H](C)O2)Oc2ccc(cc2Cl)[C@H]1O` [Vancomycin, vancomycin], the “S. aureus Inhibition” value in data set [1] is 15 mm. As for `Cc1cc(C(C)(C)C)c(O)c(C(C)(C)C)c1` [BHT, Butylated Hydroxytoluene], the “Oxidative Stability of Peanut Oil, hours required to reach a peroxide level of 100 meq, average” value in data set [2] (20 ppm) was 16.5 ± 2.1 h; in data set [2] (100 ppm), 12.5 ± 2.1 h. On to `Cc1ncc([N+](=O)[O-])n1CCO` [Metronidazole, metronidazole], for which the “H. pylori Inhibition” value in data set [3] amounted to 11 mm.

(Values after US8377424B2, “Treatment of periodontal disease” (Mars, Incorporated, priority 1996, dated 2013).)
